“And” between values parts separate entries of the source, which are not always exact repeats. Equal entries are not always repeated. Inconclusive results and toxic doses are left out. How the source made its calls: active means survival T/C of 150% or more; inactive means T/C below 125% in these data.
System: P388 leukemia ip, CD2F1 mice, survival T/C
Assay: NCI In Vivo Anticancer Drug Screen. Data for tumor model P388 Leukemia (intraperitoneal) in CD2F1 (CDF1) mice
Details: endpoint: median survival time, higher = longer survival
Summary of the method: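 Mice carrying the transplanted tumor received test compound or vehicle. Survival was recorded in each group, and the value is the treated-group measurement divided by that of the vehicle-treated control group.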

[1] = dose: 100.0 mg/kg/injection, schedule: Q04DX003 (ip), vehicle: saline
[2] = dose: 200.0 mg/kg/injection, schedule: Q04DX003 (ip), vehicle: saline
[3] = dose: 50.0 mg/kg/injection, schedule: Q01DX009 (ip), vehicle: saline with Tween-80

Measured: T/C

CC(C)(O)Cn1ccccc1=O
inactive: [1] 98 % of control | [2] 97 % of control | dose: 400.0 mg/kg/injection, schedule: Q04DX003 (ip), vehicle: saline 104 % of control

N#CC(=O)Nc1ccc(F)cc1
inactive: dose: 3.75 mg/kg/injection, schedule: Q01DX005 (ip), vehicle: saline with Tween-80 102 % of control | dose: 7.5 mg/kg/injection, schedule: Q01DX005 (ip), vehicle: saline with Tween-80 94 % of control | dose: 15.0 mg/kg/injection, schedule: Q01DX005 (ip), vehicle: saline with Tween-80 100 % of control and 107 % of control

NCCc1ccc([N+](=O)[O-])cc1
inactive: dose: 50.0 mg/kg/injection, schedule: Q01DX009 (ip), vehicle: saline 104 % of control and 96 % of control | dose: 100.0 mg/kg/injection, schedule: Q01DX009 (ip), vehicle: saline 98 % of control and 105 % of control

O=C(O)C(Cc1ccccc1)N1C(=O)C=CC1=O (stereo not given)
inactive: dose: 10.0 mg/kg/injection, schedule: Q01DX009 (ip), vehicle: saline with Tween-80 112 % of control | dose: 20.0 mg/kg/injection, schedule: Q01DX009 (ip), vehicle: saline with Tween-80 107 % of control | dose: 40.0 mg/kg/injection, schedule: Q01DX009 (ip), vehicle: saline with Tween-80 104 % of control and 95 % of control | dose: 50.0 mg/kg/injection, schedule: Q01DX009 (ip), vehicle: Klucel (hydroxypropylcellulose) (HPC) 89 % of control | dose: 100.0 mg/kg/injection, schedule: Q01DX009 (ip), vehicle: Klucel (hydroxypropylcellulose) (HPC) 90 % of control

[CH3][Sn]([CH3])([O]C(=O)c1ccccc1)[O]C(=O)c1ccccc1
inactive: dose: 50.0 mg/kg/injection, schedule: Q01DX005 (ip), vehicle: Klucel (hydroxypropylcellulose) (HPC) 107 % of control | dose: 100.0 mg/kg/injection, schedule: Q01DX005 (ip), vehicle: Klucel (hydroxypropylcellulose) (HPC) 108 % of control

CC(O)CC(O)CC1CCCO1 (stereo not given)
inactive: dose: 12.5 mg/kg/injection, schedule: Q01DX005 (ip), vehicle: saline 98 % of control | dose: 25.0 mg/kg/injection, schedule: Q01DX005 (ip), vehicle: saline 97 % of control | dose: 50.0 mg/kg/injection, schedule: Q01DX005 (ip), vehicle: saline 98 % of control and 88 % of control

CCCCCCCCCCCCCCCC[N+]1(CC)CCCCCC1
inactive: dose: 0.04 mg/kg/injection, schedule: Q01DX009 (ip), vehicle: saline 110 % of control | dose: 0.09 mg/kg/injection, schedule: Q01DX009 (ip), vehicle: saline 103 % of control and 88 % of control | dose: 0.19 mg/kg/injection, schedule: Q01DX009 (ip), vehicle: saline 89 % of control

COC(=O)C1(C)N=C1N(C)C (stereo not given)
inactive: dose: 100.0 mg/kg/injection, schedule: Q04DX002 (ip), vehicle: saline 92 % of control | dose: 200.0 mg/kg/injection, schedule: Q04DX002 (ip), vehicle: saline 90 % of control | dose: 400.0 mg/kg/injection, schedule: Q04DX002 (ip), vehicle: saline 93 % of control

CCCCCCCC(=O)Nc1ccc(CC)cc1
inactive: dose: 100.0 mg/kg/injection, schedule: Q04DX003 (ip), vehicle: other 109 % of control | dose: 200.0 mg/kg/injection, schedule: Q04DX003 (ip), vehicle: other 90 % of control | dose: 400.0 mg/kg/injection, schedule: Q04DX003 (ip), vehicle: other 118 % of control

O=C(O)c1ccc(COc2ccc([N+](=O)[O-])cc2Cl)cc1
inactive: [1] 100 % of control | [2] 99 % of control

CC[C@@H](O)[C@H](CC[Se]c1ccccc1)C(=O)[C@H](O)C1CCCCC1
inactive: dose: 60.0 mg/kg/injection, schedule: Q01DX005 (ip), vehicle: saline with Tween-80 107 % of control | dose: 120.0 mg/kg/injection, schedule: Q01DX005 (ip), vehicle: saline with Tween-80 105 % of control | dose: 240.0 mg/kg/injection, schedule: Q01DX005 (ip), vehicle: saline with Tween-80 108 % of control

CCN(Cc1ccc(C(=O)OC)cc1)c1cccc(NC(C)=O)c1
inactive: [3] 98 % of control | dose: 100.0 mg/kg/injection, schedule: Q01DX009 (ip), vehicle: saline with Tween-80 100 % of control | dose: 200.0 mg/kg/injection, schedule: Q01DX009 (ip), vehicle: saline with Tween-80 99 % of control

COC(=O)C1=CC(=O)N2C(=Nc3cccc4cccc2c34)S1
inactive: dose: 6.25 mg/kg/injection, schedule: Q01DX005 (ip), vehicle: saline with Tween-80 91 % of control | dose: 12.5 mg/kg/injection, schedule: Q01DX005 (ip), vehicle: saline with Tween-80 94 % of control | dose: 25.0 mg/kg/injection, schedule: Q01DX005 (ip), vehicle: saline with Tween-80 103 % of control | dose: 100.0 mg/kg/injection, schedule: Q01DX005 (ip), vehicle: saline with Tween-80 99 % of control | dose: 200.0 mg/kg/injection, schedule: Q01DX005 (ip), vehicle: saline with Tween-80 103 % of control

O=C(/C=C\c1ccc(NCc2ccc(C(=O)O)cc2)cc1)CCl
inactive: dose: 25.0 mg/kg/injection, schedule: Q01DX009 (ip), vehicle: saline with Tween-80 122 % of control | dose: 25.0 mg/kg/injection, schedule: Q04DX003 (ip), vehicle: saline with Tween-80 100 % of control | [3] 122 % of control | dose: 50.0 mg/kg/injection, schedule: Q04DX003 (ip), vehicle: saline with Tween-80 104 % of control | dose: 100.0 mg/kg/injection, schedule: Q04DX003 (ip), vehicle: saline with Tween-80 109 % of control

— PubChem BioAssay AID330 (DTP/NCI, 2004)
